Patent publication US6133279A, “Therapeutic agents for renal diseases and organ preservatives” (Chugai Seiyaku Kabushiki Kaisha, priority 1996, dated 2000)
Where two headings read alike, the source gives them in different places.

Legend:
[1] = test system: porcine kidney-derived LLC-PK1 cells; assay: Protective effect against oxidized LDL-induced injury of porcine kidney-derived LLC-PK1 cells (1); type: cell-based; conditions: Sus scrofa, LLC-PK1, 6 h, mean ± standard deviation, read-out: Cytoprotection rate (%)
Protocol: (§1) For the purpose of evaluating in vitro cytoprotective effect of the compounds of the present invention, a cytoprotective study was performed using porcine kidney-derived LLC-PK1 cells (ATCC-CRL-13921) injured by oxidized low-density lipoprotein (oxidized LDL).
Oxidized LDL was prepared by incubating 1 mg/ml of rabbit LDL in PBS (-) in the presence of 10 μM CuSO4 at 37° C. for 24 hours. Cell culture was carried out by plating 1.25×10^4 cells/250 μl/well on a 48-well plate containing M199 medium containing 3% FBS. Test compounds were dissolved or suspended in ethanol and added to the wells in an amount of 1.25 μl/well to a concentration of 0.1, 1 or 10 μM in each well. After 16 hours or immediately after the addition of the compounds, oxidized LDL was added to the wells. Probucol, α-tocopherol and Trolox which is a water-soluble analogue of α-tocopherol were used as reference control compounds. Oxidized LDL was diluted twice with saline and then added to the wells in an amount of 62.5 μl/well to a concentration of 100 μg/ml and the cells were cultured for 6 hours after addition of the oxidized LDL. Then, 162.5 μl/well of the culture medium were collected and measured for the lactate dehydrogenase (LDH) level (LD-L: SIGNA DIAGNOSTICS) having leaked into the medium.
The magnitude of cytoprotective effect was expressed as the cytoprotection rate which was determined by calculating the data assuming that the magnitude in wells containing oxidized LDL is 0% and that the magnitude in wells containing saline is 100%.

[2] = test system: puromycin-induced nephrosis model; assay: Puromycin-induced nephrosis (2), postadministration (in vivo); parameters: species or system rat (male SD rats); conditions: 200 mg/kg oral once a day from the day following puromycin; for Creatinine: control 0.82 ± 0.07; for Urine nitrogen: control 30.74 ± 10.95; for Creatinine clearance: control 824 ± 108
Protocol: Effect of the compounds of the present invention on an in vivo renal disease was studied using a puromycin-induced nephrosis model. A puromycin-induced renal failure model was prepared from rats in groups of 5-8 each (6 week-old male SD rats) fed with high-fat diet. High-fat diet feeding was started by free access to high-fat diet (cholesterol level 1.25%) from 7 days before puromycin treatment. Puromycin (puromycin aminonucleoside, SIGMA Chemical Co.) treatment was performed by intraperitoneal administration at a dose of 100 mg/kg. Test compounds were administered as a solution in soybean oil via oral route (4 ml/kg). Control group was orally administered soybean oil alone. Probucol and a water-soluble α-tocopherol analogue, Trolox, were used as reference control compounds. The compounds were orally administered once a day from the following day of the puromycin treatment. Renal functions were determined by using urine and blood samples. The volume of urine, urea nitrogen level and creatinine levels of serum and urine were evaluated to calculate creatinine clearance as an indication of renal functions.

[3] = literature; cited from earlier work
[4] = test system: porcine kidney-derived LLC-PK1 cells; assay: Protective effect against oxidized LDL-induced injury of porcine kidney-derived LLC-PK1 cells (2); type: cell-based; conditions: Sus scrofa, LLC-PK1, 6 h, mean ± standard deviation, read-out: Cytoprotection rate (%)
Protocol: as §1, with “LDL) in the same manner as in Test example 1 with the exception of some points.” for “LDL).”
Preparation of oxidized LDL and the conditions for cell culture and addition of test compounds were the same as in Test example 1. However, oxidized LDL was not diluted with saline and added to cells in an amount of 25 μl/well to a concentration of 91 μg/ml and the cells were cultured for 6 hours after addition of the oxidized LDL. Then, 150 μl/well of the culture medium were collected and measured for the lactate dehydrogenase (LDH) level (LD-L: SIGMA DIAGNOSTICS) having leaked in the medium.

[5] = test system: murine mesangial derived MES13 cells; assay: Protective effect against oxidized LDL-induced injury of murine mesangial cells (in vitro); type: cell-based; conditions: Mus musculus, MES13, 10 h, mean ± standard deviation, read-out: Cytoprotection rate (%)
Protocol: For the purpose of evaluating in vitro cytoprotective effect of the compounds of the present invention on mesangial cells, a cytoprotective study was performed using murine mesangial derived MES13 cells (ATCC-CRL-1927) injured by oxidized LDL.
Oxidized LDL was prepared in the same manner as in Test example 1. Cell culture was carried out by plating 2.5×10^4 cells/250 μl/well on a 48-well plate using FBS-free medium (mixture of DME medium and F12 medium in a ratio of 3:1). Test compounds were dissolved or suspended in ethanol and added to the wells in an amount of 1.25 μl/well to a concentration of 1 or 10 μM in each well. After 16 hours or immediately after the addition of the compounds, oxidized LDL was added to cells in an amount of 25 μl/well to a concentration of 91 μg/ml and the cells were cultured for 10 hours after addition of the oxidized LDL. Then, 150 μl/well of the culture medium were collected and measured for the lactate dehydrogenase level (LDL: SIGMA DIAGNOSTICS) having leaked in the medium.
The magnitude of cytoprotective effect was expressed as the cytoprotection rate which was determined by calculating the data assuming that the magnitude in wells containing oxidized LDL is 0% and that the magnitude in containing saline is 100%.

[6] = compound added 16 hours before adding oxidized LDL
[7] = compound added immediately before adding oxidized LDL

Compound	inhibition at 0.1 µM [1, 6] [%]	inhibition at 0.1 µM [1, 7] [%]	inhibition at 1 µM [1, 6] [%]	inhibition at 1 µM [1, 7] [%]	inhibition at 10 µM [1, 6] [%]	inhibition at 10 µM [1, 7] [%]	Creatinine [2] [mg/dL]	Urine nitrogen [2] [mg/dL]	Creatinine clearance [2] [mL/day]	effect on renal disease models / renal functions (in words) [3]	inhibition at 0.1 µM [4, 6] [%]	inhibition at 0.1 µM [4, 7] [%]	inhibition at 1 µM [4, 6] [%]	inhibition at 1 µM [4, 7] [%]	inhibition at 10 µM [4, 6] [%]	inhibition at 10 µM [4, 7] [%]	inhibition at 1 µM [5, 6] [%]	inhibition at 1 µM [5, 7] [%]	inhibition at 10 µM [5, 6] [%]	inhibition at 10 µM [5, 7] [%]
CC(C)(Sc1cc(C(C)(C)C)c(O)c(C(C)(C)C)c1)Sc1cc(C(C)(C)C)c(O)c(C(C)(C)C)c1 [Probucol, probucol, reference compound]	22.5 ± 15.1	-1.8 ± 9.7	36.4 ± 13.3	0.3	99.7 ± 1.1	17 ± 7.8	0.98 ± 0.13	37.53 ± 7.53	838 ± 187	–	–	–	–	–	–	–	–	–	–	–
Cc1c(C)c2c(c(C)c1O)CCC(C)(CCCC(C)CCCC(C)CCCC(C)C)O2 (stereo not drawn) [α-tocopherol, reference compound]	7.2 ± 2.2	-2.8	72.1 ± 13.8	8.2 ± 5.7	98.9 ± 1	2.7 ± 2.3	–	–	–	its effect is not sufficient	–	–	–	–	–	–	–	–	–	–
CC1(CCCCCC(=O)O)Cc2c(cc(C(C)(C)C)c(O)c2C(C)(C)C)O1 (stereo not drawn) [Example 78, 6-(4,6-Di-t-butyl-5-hydroxy-2-methyl-2,3-dihydrobenzofuran-2-yl)hexanoic acid]	–	–	–	–	–	–	–	–	–	–	-2.8 ± 0.9	-11.6 ± 2.7	-10.7 ± 8.9	-6.7	67.5 ± 6.1	80.9 ± 1.5	13.5 ± 5.6	13.2 ± 1.4	7.6 ± 2.1	51.3 ± 2.7
CCOC(=O)CCC1(C)Cc2c(cc(C(C)(C)C)c(O)c2C(C)(C)C)O1 (stereo not drawn) [Example 76, Ethyl 3-(4,6-di-t-butyl-5-hydroxy-2-methyl-2,3-dihydrobenzofuran-2-yl)propanoate]	–	–	–	–	–	–	–	–	–	–	-10.4 ± 4.2	-12.8 ± 1.2	-2.8 ± 3.5	-7.6	13.8 ± 4.2	58.8 ± 9.5	-4.8 ± 4.1	5.3 ± 3.9	-17.2 ± 0.9	34.1 ± 2.5
CC(C)(C)c1cc2c(c(C(C)(C)C)c1O)CC1(CCCCCC1)O2 [Example 20, 4,6-Di-t-butyl-5-hydroxy-2,3-dihydrobenzofuran-2-spiro-1'-cycloheptane]	-11.3 ± 8.5	-15.8 ± 8	98.6 ± 1.2	99.9	106 ± 1.2	102 ± 4.7	0.61 ± 0.08	25.40 ± 10.28	1144 ± 172	–	–	–	–	–	–	–	–	–	–	–
CC(C)(C)c1cc2c(c(C(C)(C)C)c1O)CC(Cc1ccccc1)(Cc1ccccc1)O2 [Example 16, 4,6-Di-t-butyl-2,2-dibenzyl-5-hydroxy-2,3-dihydrobenzofuran]	12 ± 7.5	-36.7 ± 6.6	94.5 ± 4.9	74.4	98.3 ± 0.3	99.6 ± 0.1	0.73 ± 0.06	31.82 ± 10.84	925	–	–	–	–	–	–	–	–	–	–	–
CC1(C=CCCCC(=O)O)Cc2c(cc(C(C)(C)C)c(O)c2C(C)(C)C)O1 (stereo not drawn) [Example 77, 6-(4,6-Di-t-butyl-5-hydroxy-2-methyl-2,3-dihydrobenzofuran-2-yl)-5-hexenoicacid]	–	–	–	–	–	–	–	–	–	–	12.3 ± 2.7	9.1 ± 1.8	6.1 ± 1.5	10.6	35.8 ± 4	48.5 ± 2.1	8.4 ± 0.4	8.7 ± 2.3	2.5 ± 2.8	24.3 ± 1.7
Cc1c(C)c2c(c(C)c1O)CCC(C)(C(=O)O)O2 (stereo not drawn) [Trolox, reference compound]	0.4 ± 1.3	0	6.4 ± 10.6	-7.1	17.5 ± 16.9	-4.9 ± 6.3	0.96 ± 0.14	31.91 ± 11.93	660	–	–	–	–	–	–	–	–	–	–	–
CC1(CNNC(=N)N)Cc2c(cc(C(C)(C)C)c(O)c2C(C)(C)C)O1 (stereo not drawn) [Example 87, 1-[(4,6-Di-t-butyl-5-hydroxy-2-methyl-2,3-dihydrobenzofuran-2-yl)methylamino]guanidine]	–	–	–	–	–	–	–	–	–	–	-7.8 ± 4.4	-0.3 ± 0.5	6.5 ± 5.2	28.6	103.6 ± 0.5	101.8 ± 0.6	3.7 ± 3.3	30.3 ± 3.8	35.5 ± 4.2	86.2 ± 0.6
CC1(CNC(N)=S)Cc2c(cc(C(C)(C)C)c(O)c2C(C)(C)C)O1 (stereo not drawn) [Example 80, 1-[(4,6-Di-t-butyl-5-hydroxy-2-methyl-2,3-dihydrobenzofuran-2-yl)methyl]thiourea]	–	–	–	–	–	–	–	–	–	–	9.2 ± 1.8	-1.3 ± 1.4	23.7 ± 5.8	10.7	102.4 ± 0.5	102.6 ± 1	-7 ± 0.8	-1.3 ± 3.4	22.1 ± 0.7	56.2 ± 2.4
